# Measurements as given in patent US20200138764A1, “METHODS AND DEVICES FOR ACTIVATING ADIPOSE TISSUE” (The Procter & Gamble Company, priority 2018, published 2020).
# Assays:
# [1] = system: adipocyte; experiment: In vivo browning study in lean mice: Fat % by image analysis of H&E stained tissue; design: species or system Mice (C57BJ/6); conditions: mice, SC injection, Formula III one side and mirabegron other side; high and middle dosage merged; H&E images
# Description: (§1) Mice (8-10 weeks old males C57BJ/6 strain) were obtained from a commercial vendor Charles River Laboratories. The animal study protocols were approved by the Institutional Animal Care and Use Committee, at the Procter & Gamble Company. Mice were acclimated to the facility for 14 days prior to initiating the study. From arrival, mice were housed in solid-bottom shoebox styled cages within room temperature of 22±2° C. with ad libitum access to water and regular rodent chow diet on a 12 h light/dark cycle. Mice were single housed and offered bedding and various enrichment options. The bedding and nesting material allowed the mice to thermoregulate to their desired level of comfort. Body weights were recorded at the beginning of the study, on each dosing day prior to dosing, and final weights were recorded at the end of the study. Overall food consumption, fecal output, and body appearance were monitored during cage side clinical observations but were not scientifically measured or tracked. During the dosing period, the animals were observed several times per day (for example, before and during injection, immediately to 30-min post injection, a few hours after injection, and end of work day).
# […] The injection was performed using a 25-27-gauge ½-⅝″ length needle via a subcutaneous (SC) injection near or into the inguinal fat pad region of the lower abdomen. Dosing was done twice a week injections over 3 weeks. Necropsy was done at week 4. […]
# Segments of adipocyte and inter-cellular regions in a stained image were identified by Python […] package. […] The threshold between adipocyte and inter-cellular regions in a converted image was detected by the Otsu filter function of the […]. The detected value was adjusted by multiplying 1.1.
# The ratio of adipocyte in an image was calculated from the pixel number of the segments—Adipocyte Pixel was divided by Total Pixel.
# The significance of the difference in Adipocyte Ratio between treatment and control groups was assessed by the Negative Binomial Generalized Linear Mixed-Effects Model using glmer.nb function of R lme4 package. […]
# [2] = system: fat tissue; experiment: qPCR biomarker analysis of fat tissue, in vivo; design: species or system Mice (C57BJ/6); conditions: mouse fat tissue, SC injection twice a week over 3 weeks
# Description: as §1
# Three groups of animals were treated with mirabegron (i.e. positive control) (n=4), placebo (n=2) and Formula III (n=6) on the left side while the right side received placebo in all three groups. The injection was performed using a 25-27-gauge ½-⅝″ length needle via a subcutaneous (SC) injection near or into the inguinal fat pad region of the lower abdomen. Dosing was done twice a week injections over 3 weeks. Necropsy was done at week 4. Test materials were administered at room temperature and in a neutral pH range. Three days after last dosing animals were euthanized with CO2 inhalation, inguinal fat pads were harvested, and tissues were processed for histology and biomarker analysis.
# The qPCR biomarker analysis was conducted from flash frozen fat tissue from mouse study described above. First, RNA was manually extracted with RNAdvance Tissue kit (Agencourt). RNA was extracted from flash frozen fat tissue according to manufactuer's directions. For example, 5 mm steel beads were placed in the freezer for approximately 15-20 minutes. Next, Qiagen Buffer RLT was cooled to 4° C. for 20 minutes and placed in a 96 well 1.5 mL tube rack for sample transfer. Isopropanol was added to Agencourt wash buffer. 100 mL aliquots of 70% ethanol in water were prepared. The RNA Tissue beads were allowed to warm to 22° C. (˜30 minutes), and then the beads were shaken vigorously and intermittently for at least 15-20 minutes. 1 stainless steel bead was added to a 2 mL round bottom tube stored on dry ice. The tissue sample was then transferred to the 2 mL round bottom tube.
# The tube rack was placed on wet ice. Then, the tubes were transferred from dry ice to the rack in wet ice and 350 μL of cold buffer RLT were added to the tubes. The beads were beaten at 30 Hz for 2 minutes. After bead beating, samples were centrifuged for 2 minutes. The supernatant was transferred into 96 well deep well isolation plate.
# 80 μL of RNATissue beads were combined with 320 μL of isopropanol to create a Bind Buffer. This solution was prepared fresh for each isolation with any unused solution discarded.
# 400 μL of Bind Buffer was added to the to RLT mixture and slowly mixed. The solution was incubated at room temperature for 10 minutes. Special care was taken to avoid the formation of bubbles while tip mixing.
# The mixture was placed on a magnet (96 well plate—Agencourt SPRIPlate) for 6-10 minutes. After the solution became clear, the supernatant was removed from each tube while the tubes remained on the magnet and the solution was discarded.
# The tubes were removed from the magnet and the pellets were washed with 800 μL of the Isopropanol Wash Buffer ten times. […]
smiles,measurement,setting,value
"Nc1nc(CC(=O)Nc2ccc(CCNC[C@H](O)c3ccccc3)cc2)cs1 [Mirabegron, mirabegron]",Average Fat % (Adipocyte Pixel / Total Pixel),[1],94.43%
same,Average Fold vs Placebo: AdipoQ,[2],13.7
same,Average Fold vs Placebo: Adrb3,[2],16.3
same,Average Fold vs Placebo: Cidea,[2],39.7
same,Average Fold vs Placebo: Cox7a1,[2],27.8
same,Average Fold vs Placebo: Cox8b,[2],38.6
same,Average Fold vs Placebo: Dio2,[2],8.3
same,Average Fold vs Placebo: Elovl3,[2],19.1
same,Average Fold vs Placebo: IL6,[2],3.3
same,Average Fold vs Placebo: Ppargc1,[2],12.0
same,Average Fold vs Placebo: Prdm16,[2],5.0
same,Average Fold vs Placebo: Tfap2a,[2],15.2
same,Average Fold vs Placebo: UCP1,[2],170.3
